For 15 compounds, microsomal CLint and IC50 results are on record in patent EP4725941A1, “ARYLAMIDE DERIVATIVE HAVING ANTITUMOR ACTIVITY” (priority 2020, dated 2021).

Data set [1] is described as follows: Human liver microsome stability. It counts as in vitro ADME. To be noted: human liver microsomes, pH 7.4. On the technique in general: Liver microsomes are a subcellular fraction often used to study metabolism.
The subject of a further data set is Calu-6. Kind of data set: Cell proliferation-inhibiting activity (ATP in viable cells, CellTiter-Glo), Calu-6. It counts as cell-based, human. The note with it: read-out: Calu-6 IC50.
A further data set relates to NCI-H2122. The experiment in a line: Cell proliferation-inhibiting activity (ATP in viable cells, CellTiter-Glo), NCI-H2122. Format: cell-based, human. The note with it: read-out: NCI-H2122 IC50.
For another data set, the target named is T1, BRAF (Homo sapiens, UniProt P15056).
T1 construct: purchased Eurofins Genomics KK; (BRAF); Thermo Fisher Scientific Inc. (MEK1)
T1 sequence (P15056 417-766 limits assumed): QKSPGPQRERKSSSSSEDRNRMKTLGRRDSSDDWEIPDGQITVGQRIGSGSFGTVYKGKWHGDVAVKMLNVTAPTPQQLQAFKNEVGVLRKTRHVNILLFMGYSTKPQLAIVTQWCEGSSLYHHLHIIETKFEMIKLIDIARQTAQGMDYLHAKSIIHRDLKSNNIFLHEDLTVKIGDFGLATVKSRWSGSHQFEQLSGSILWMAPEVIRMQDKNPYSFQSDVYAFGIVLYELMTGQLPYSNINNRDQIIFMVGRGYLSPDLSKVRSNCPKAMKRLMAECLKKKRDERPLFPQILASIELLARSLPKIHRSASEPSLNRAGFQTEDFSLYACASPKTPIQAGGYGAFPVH
The experiment in a line: BRAF-inhibiting activity, time-resolved fluorescence-fluorescence resonance energy transfer assay. It counts as biochemical. As to the method: The BRAF-inhibiting activity of the compounds listed in Table 3 below was evaluated by the time-resolved fluorescence-fluorescence resonance energy transfer assay as described below.

The target of another data set is T2, MEK1 (Homo sapiens, UniProt Q02750).
T2 construct: purchased Thermo Fisher Scientific Inc. (MEK1, CRAF); Carna Biosciences, Inc. (ERK2)
T2 sequence (Q02750 whole entry): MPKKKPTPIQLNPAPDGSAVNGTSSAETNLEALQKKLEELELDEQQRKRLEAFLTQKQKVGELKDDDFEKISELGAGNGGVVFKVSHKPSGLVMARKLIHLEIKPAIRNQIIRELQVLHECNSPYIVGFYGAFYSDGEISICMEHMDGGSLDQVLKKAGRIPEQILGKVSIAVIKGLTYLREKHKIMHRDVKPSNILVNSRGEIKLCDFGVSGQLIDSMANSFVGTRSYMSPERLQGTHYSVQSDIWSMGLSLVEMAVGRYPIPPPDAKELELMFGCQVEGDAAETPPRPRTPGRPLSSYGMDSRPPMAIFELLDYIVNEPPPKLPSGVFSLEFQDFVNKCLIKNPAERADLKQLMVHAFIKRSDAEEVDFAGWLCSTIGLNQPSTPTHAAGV
The experiment in a line: MEK1-inhibiting activity, fluorescent polarization method (CRAF/MEK1/ERK2 cascade, IMAP). Format: biochemical. The note with it: Table 3; read-out: MEK1 IC50. As to the method: The MEK1-inhibiting activity of the compounds listed in Table 3 below were evaluated by the fluorescent polarization method as described below.

The next data set concerns A549. Kind of data set: Cell proliferation-inhibiting activity (ATP in viable cells, CellTiter-Glo), A549. It counts as cell-based, human. The note with it: Homo sapiens, A549, 96 h, read-out: A549 IC50. In general terms: ATP-based viability assays read luminescence as a measure of living cells.
Where [2] appears, read: Calu-6, 96 h, human lung cancer cells, 4 days.
Setting [3] is: NCI-H2122, 96 h, human lung cancer cells, 4 days.
Where [4] appears, read: human lung cancer cells, 4 days.

Read-outs that look alike come from different tables or passages of the source.

Take `CC1(NS(=O)(=O)Nc2nccc(Cc3cc(C(N)=O)c(Nc4ccc(C5CC5)cc4F)c(F)c3F)c2F)CCC1` [Compound A-46, 2-(4-Cyclopropyl-2-fluoroanilino)-3,4-difluoro-5-[[3-fluoro-2-[(1-methylcyclobutyl)sulfamoylamino]pyridin-4-yl]methyl]benzamide]: the microsomal CLint (in general, the capacity of the preparation to metabolise the compound, expressed as a volume cleared per time) at 0.99 µM in data set [1] turned out to be 23 µL/min/mg. Also, the IC50 (usually the concentration needed to halve the response being measured) was found to be 0.367 µM with Calu-6 (Homo sapiens, Calu-6, 96 h); 0.031 µM in the data set on NCI-H2122 (Homo sapiens, NCI-H2122, 96 h); 0.03 µM on BRAF (Table 3; read-out: BRAF IC50); 0.811 µM at MEK1.
Take `CS(=O)(=O)Nc1nccc(Cc2cc(C(=O)NC3CC3)c(Nc3ccc(I)cc3F)c(F)c2F)c1F` [Compound B-14, N-Cyclopropyl-3,4-difluoro-2-(2-fluoro-4-iodoanilino)-5-[[3-fluoro-2-(methanesulfonamide)pyridin-4-yl]methyl]benzamide]: the microsomal CLint at 0.99 µM in data set [1] worked out at 4 µL/min/mg. Besides, the IC50 with Calu-6 (setting [2]) came to 0.074 µM; in the data set with NCI-H2122 (setting [3]) it was 0.011 µM; at BRAF (read-out: BRAF IC50; Table 3), 0.013 µM; on MEK1 it was 0.104 µM.
On the same counts, the results for `CONC(=O)c1cc(Cc2ccnc(NS(C)(=O)=O)c2F)c(F)c(F)c1Nc1ccc(I)cc1F` [Compound B-15, 3,4-Difluoro-2-(2-fluoro-4-iodoanilino)-5-[[3-fluoro-2-(methanesulfonamide)pyridin-4-yl]methyl]-N-methoxybenzamide] are 13 µL/min/mg, 0.06 µM, 0.006 µM, 0.004 µM and 0.008 µM.
On the same counts, the results for `CCS(=O)(=O)Nc1nccc(Cc2cc(C(=O)NOC)c(Nc3ccc(I)cc3F)c(F)c2F)c1F` [Compound B-16, 5-[[2-(ethylsulfonylamino)-3-fluoropyridin-4-yl]methyl]-3,4-difl uoro-2-(2-fluoro-4-iodoanilino)-N-methoxybenzamide] are 10 µL/min/mg, 0.009 µM, 0.001 µM, 0.012 µM and 0.004 µM.
Compound `CC1(NS(=O)(=O)Nc2cccc(Cc3cc(C(N)=O)c(Nc4ccc(I)cc4F)c(F)c3F)c2F)CCC1` [Compound D-9, 3,4-Difluoro-2-(2-fluoro-4-iodoanilino)-5-[[2-fluoro-3-[(1-methylcyclobutyl)sulfamoylamino]phenyl]methyl]benzamide] returned a microsomal CLint at 0.99 µM in data set [1] of 53 µL/min/mg. Besides, the 50% inhibitory concentration (IC50) was found to be 0.028 µM with Calu-6 (setting [2]), 0.003 µM in the data set with NCI-H2122 (setting [3]), 0.024 µM on BRAF (read-out: BRAF IC50; Table 3) and 0.252 µM at MEK1.
`CNS(=O)(=O)Nc1cccc(Cc2cc(C(=O)NOC)c(Nc3ccc(I)cc3F)c(F)c2F)c1F` [Compound D-11, 3,4-Difluoro-2-(2-fluoro-4-iodoanilino)-5-[[2-fluoro-3-(methylsulfamoylamino)phenyl]methyl]-N-methoxybenzamide] came in with a microsomal CLint at 0.99 µM in data set [1] of 24 µL/min/mg. In addition, the IC50 was found to be 0.002 µM in the data set on Calu-6 (setting [2]), 0.0003 µM in the data set with NCI-H2122 (setting [3]), 0.003 µM on BRAF (read-out: BRAF IC50; Table 3) and 0.006 µM at MEK1.
On to `CONC(=O)c1cc(Cc2cccc(NS(N)(=O)=O)c2F)c(F)c(F)c1Nc1ccc(I)cc1F` [Compound D-12, 3,4-Difluoro-2-(2-fluoro-4-iodoanilino)-5-[[2-fluoro-3-(sulfamoylamino)phenyl]methyl]-N-methoxybenzamide], for which, in data set [1], the microsomal CLint at 0.99 µM was determined as 18 µL/min/mg. Moreover, the IC50 in the data set on Calu-6 (setting [2]) came to 0.006 µM; in the data set on NCI-H2122 (setting [3]), 0.0004 µM; on BRAF (read-out: BRAF IC50; Table 3), 0.014 µM; on MEK1, 0.015 µM.
The compound `CONC(=O)c1cc(Cc2cccc(NS(=O)(=O)NC3(C)CCC3)c2F)c(F)c(F)c1Nc1ccc(I)cc1F` [Compound D-13, 3,4-Difluoro-2-(2-fluoro-4-iodoanilino)-5-[[2-fluoro-3-[(1-methylcyclobutyl)sulfamoylamino]phenyl]methyl]-N-methoxybenzamide] gave a microsomal CLint at 0.99 µM in data set [1] of 88 µL/min/mg. The IC50 with Calu-6 (setting [2]) worked out at 0.006 µM; in the data set on NCI-H2122 (setting [3]) it was 0.001 µM; at BRAF (read-out: BRAF IC50; Table 3), 0.018 µM; on MEK1 it was 0.029 µM.
In data set [1], `CNS(=O)(=O)Nc1cccc(Cc2cc(C(N)=O)c(Nc3ccc(C4CC4)cc3F)c(F)c2F)c1F` [Compound D-14, 2-(4-Cyclopropyl-2-fluoroanilino)-3,4-difluoro-5-[[2-fluoro-3-(methylsulfamoylamino)phenyl]methyl]benzamide] returned a microsomal CLint at 0.99 µM of 15 µL/min/mg. Besides, the IC50 with Calu-6 (Homo sapiens, Calu-6, 96 h) was 0.117 µM; in the data set with NCI-H2122 (Homo sapiens, NCI-H2122, 96 h), 0.01 µM; on BRAF (Table 3; read-out: BRAF IC50), 0.007 µM; on MEK1 it was 1.6 µM.
In data set [1], `CNS(=O)(=O)Nc1cccc(Cc2cc(C(=O)NOC)c(Nc3ccc(C4CC4)cc3F)c(F)c2F)c1F` [Compound D-16, 2-(4-Cyclopropyl-2-fluoroanilino)-3,4-difluoro-5-[[2-fluoro-3-(methylsulfamoylamino)phenyl]methyl]-N-methoxybenzamide] gave a microsomal CLint at 0.99 µM of 51 µL/min/mg. In addition, the IC50 in the data set on Calu-6 (Homo sapiens, Calu-6, 96 h) was found to be 0.017 µM; with NCI-H2122 (Homo sapiens, NCI-H2122, 96 h), 0.001 µM; on BRAF (Table 3; read-out: BRAF IC50), 0.006 µM; at MEK1, 0.048 µM.
With `CS(=O)(=O)Nc1cccc(Cc2cc(C(=O)NC3CC3)c(Nc3ccc(I)cc3F)c(F)c2F)c1F` [Compound E-25, N-Cyclopropyl-3,4-difluoro-2-(2-fluoro-4-iodoanilino)-5-[[2-fluoro-3-(methanesulfonamide)phenyl]methyl]benzamide], the IC50 was 0.028 µM in the data set with Calu-6 (setting [4]), 0.007 µM in the data set with NCI-H2122 (setting [4]), 0.011 µM on BRAF (Table 3; read-out: BRAF IC50) and 0.284 µM on MEK1.
Compound `CONC(=O)c1cc(Cc2cccc(NS(C)(=O)=O)c2F)c(F)c(F)c1Nc1ccc(I)cc1F` [Compound E-26, 3,4-Difluoro-2-(2-fluoro-4-iodoanilino)-5-[[2-fluoro-3-(methanesulfonamide)phenyl]methyl]-N-methoxybenzamide] came in with a microsomal CLint at 0.99 µM in data set [1] of 13 µL/min/mg. Also, the IC50 was found to be 0.005 µM in the data set on Calu-6 (setting [2]), 0.0006 µM in the data set on NCI-H2122 (setting [3]), 0.006 µM on BRAF (read-out: BRAF IC50; Table 3) and 0.013 µM on MEK1.
Turning to `CC1(NS(=O)(=O)Nc2nccc(Cc3cc(C(=O)NC4CC4)c(Nc4ccc(C5CC5)cc4F)c(F)c3F)c2F)CCC1` [Compound G-5], the microsomal CLint at 0.99 µM in data set [1] worked out at 86 µL/min/mg. Also, the IC50 was 0.374 µM in the data set with Calu-6 (Homo sapiens, Calu-6, 96 h); 0.057 µM in the data set on NCI-H2122 (Homo sapiens, NCI-H2122, 96 h); 0.078 µM on BRAF (Table 3; read-out: BRAF IC50); 0.751 µM on MEK1.
Turning to `CNS(=O)(=O)Nc1nccc(Cn2cc(C(N)=O)c(Nc3ccc(SC)cc3F)c(F)c2=O)c1F` [Compound N-3, 5-Fluoro-1-[[3-fluoro-2-(methylsulfamoylamino)pyridin-4-yl]methyl]-4-(2-fluoro-4-methylsulfanylanilino)-6-oxopyridine-3-carboxamide], the IC50 with A549 amounted to 0.475 µM; with NCI-H2122 (Homo sapiens, NCI-H2122, 96 h) it was 0.311 µM; at BRAF (Table 3; read-out: BRAF IC50), 0.005 µM; at MEK1, 0.004 µM. For the same compound, the intrinsic metabolic clearance (microsomal CLint) at 0.99 µM in data set [1] amounted to 19 µL/min/mg.
In data set [1], `CNS(=O)(=O)Nc1nccc(Cn2cc(C(N)=O)c(Nc3ccc(I)cc3F)c(C)c2=O)c1F` [Compound P-1, 4-(2-Fluoro-4-iodoanilino)-1-[[3-fluoro-2-(methylsulfamoylamino)pyridin-4-yl]methyl]-5-methyl-6-oxopyridine-3-carboxamide] showed a microsomal CLint at 0.99 µM of 15 µL/min/mg. For the same compound, the figures for the IC50 in the data set on Calu-6 (setting [2]), with NCI-H2122 (setting [3]) and on MEK1 were 0.022 µM, 0.006 µM and 0.002 µM, respectively.
